Measurements from US11413291B2, “Pesticidally active heterocyclic derivatives with sulfur containing substituents” (SYNGENTA PARTICIPATIONS AG, priority 2017, dated 2022).

Key:
Type in all cases: in vivo
[1] = tested on: Myzus persicae; test: Example B6: Myzus persicae systemic, pea seedling roots in test solution; conditions: Myzus persicae, 144 h; test rate 24 ppm; mixed ages; 6 days
Procedure: Roots of pea seedlings infested with an aphid population of mixed ages were placed directly into aqueous test solutions prepared from 10,000 DMSO stock solutions. The samples were assessed for mortality 6 days after placing seedlings into test solutions.

[2] = tested on: Diabrotica balteata; test: Example B4: Diabrotica balteata, sprayed maize sprouts; conditions: 96 h, application rate 200 ppm, L2 larvae, 4 days after infestation, read-out: effect in at least one of the two categories (mortality or growth inhibition)
Procedure: Maize sprouts placed onto an agar layer in 24-well microtiter plates were treated with aqueous test solutions prepared from 10,000 ppm DMSO stock solutions by spraying. After drying, the plates were infested with L2 larvae (6 to 10 per well). The samples were assessed for mortality and growth inhibition in comparison to untreated samples 4 days after infestation.

[3] = tested on: Spodoptera littoralis; test: Example B2: Spodoptera littoralis, systemic uptake via lettuce roots from agar; conditions: 144 h, test rate 12.5 ppm, 6 days after infestation, read-out: effect in at least one of the three categories (mortality, anti-feeding, or growth inhibition)
Text: Test compounds were applied by pipette from 10′000 ppm DMSO stock solutions into 24-well plates and mixed with agar. Lettuce seeds were placed onto the agar and the multi well plate was closed by another plate which contained also agar. After 7 days the compound was absorbed by the roots and the lettuce grew into the lid plate. The lettuce leaves were then cut off into the lid plate. Spodoptera eggs were pipetted through a plastic stencil onto a humid gel blotting paper and the lid plate was closed with it. The samples were assessed for mortality, anti-feedant effect and growth inhibition in comparison to untreated samples 6 days after infestation.

[4] = tested on: Myzus persicae; test: Example B5: Myzus persicae feeding/contact, sprayed sunflower leaf discs; conditions: Myzus persicae, foliar, 144 h; application rate 200 ppm; mixed ages; 6 days after infestation
Procedure: Sunflower leaf discs were placed onto agar in a 24-well microtiter plate and sprayed with aqueous test solutions prepared from 10,000 ppm DMSO stock solutions. After drying, the leaf discs were infested with an aphid population of mixed ages. The samples were assessed for mortality 6 days after infestation.

[5] = tested on: Spodoptera littoralis; test: Example B1: Spodoptera littoralis, sprayed cotton leaf discs; conditions: foliar, 72 h, application rate 200 ppm, L1 larvae, 3 days after infestation
Procedure: Cotton leaf discs were placed onto agar in 24-well microtiter plates and sprayed with aqueous test solutions prepared from 10′000 ppm DMSO stock solutions. After drying the leaf discs were infested with five L1 larvae. The samples were assessed for mortality, anti-feeding effect, and growth inhibition in comparison to untreated samples 3 days after infestation. Control of Spodoptera littoralis by a test sample is given when at least one of the categories mortality, anti-feedant effect, and growth inhibition is higher than the untreated sample.

[6] = tested on: Bemisia tabaci; test: Example B7: Bemisia tabaci, sprayed cotton leaf discs; conditions: foliar, 144 h, application rate 200 ppm, adult white flies, 6 days after incubation
Procedure: Cotton leaf discs were placed on agar in 24-well microtiter plates and sprayed with aqueous test solutions prepared from 10,000 ppm DMSO stock solutions. After drying the leaf discs were infested with adult white flies. The samples were checked for mortality 6 days after incubation.

[7] = tested on: Frankliniella occidentalis; test: Example B11: Frankliniella occidentalis, sprayed sunflower leaf discs; conditions: foliar, 168 h, application rate 200 ppm, mixed ages, 7 days after infestation
Procedure: Sunflower leaf discs were placed on agar in 24-well microtiter plates and sprayed with aqueous test solutions prepared from 10,000 DMSO stock solutions. After drying the leaf discs were infested with a Frankliniella population of mixed ages. The samples were assessed for mortality 7 days after infestation.

[8] = tested on: Tetranychus urticae; test: Example B10: Tetranychus urticae, sprayed bean leaf discs; conditions: foliar, 192 h, application rate 200 ppm, mixed population (mobile stages), 8 days after infestation
Procedure: Bean leaf discs on agar in 24-well microtiter plates were sprayed with aqueous test solutions prepared from 10,000 ppm DMSO stock solutions. After drying the leaf discs were infested with a mite population of mixed ages. The samples were assessed for mortality on mixed population (mobile stages) 8 days after infestation.

[9] = tested on: Plutella xylostella; test: Example B3: Plutella xylostella, artificial diet; conditions: 120 h, application rate 200 ppm, L2 larvae, 5 days after infestation, read-out: effect in at least one of the two categories (mortality or growth inhibition)
Procedure: 24-well microtiter plates with artificial diet were treated with aqueous test solutions prepared from 10,000 ppm DMSO stock solutions by pipetting. After drying, the plates were infested with L2 larvae (10 to 15 per well). The samples were assessed for mortality and growth inhibition in comparison to untreated samples 5 days after infestation.

[10] = tested on: Euschistus heros; test: Example B8: Euschistus heros, sprayed soybean leaves; conditions: Euschistus heros, 120 h; application rate 200 ppm; N2 nymphs; 5 days after infestation; read-out: effect in at least one of the two categories (mortality or growth inhibition)
Procedure: Soybean leaves on agar in 24-well microtiter plates were sprayed with aqueous test solutions prepared from 10,000 ppm DMSO stock solutions. After drying the leaves were infested with N2 nymphs. The samples were assessed for mortality and growth inhibition in comparison to untreated samples 5 days after infestation.

CCn1c(C(F)(F)F)cc2nc(-c3ncc(C(C)(C)C#N)cc3S(=O)(=O)CC)n(C)c2c1=O [Compound P3, 2-[6-[5-ethyl-3-methyl-4-oxo-6-(trifluoromethyl)imidazo[4,5-c]pyridin-2-yl]-5-ethylsulfonyl-3-pyridyl]-2-methyl-propanenitrile]
≥ 80%: mortality at 24 ppm [1] | percent effect (mortality or growth inhibition) at 200 ppm [2] | percent effect (mortality, anti-feeding or growth inhibition) at 12.5 ppm [3] | mortality at 200 ppm [4] | percent control (mortality, anti-feedant effect or growth inhibition) at 200 ppm [5] | mortality at 200 ppm [6] | mortality at 200 ppm [7] | mortality at 200 ppm [8] | percent effect (mortality or growth inhibition) at 200 ppm [9] | percent effect (mortality or growth inhibition) at 200 ppm [10]

CCS(=O)(=O)c1cc(C(C)(C)C#N)cnc1-c1cn2ccc(C(F)(F)C(F)(F)F)cc2n1 [Compound P6, 2-[5-ethylsulfonyl-6-[7-(1,1,2,2,2-pentafluoroethyl)imidazo[1,2-a]pyridin-2-yl]-3-pyridyl]-2-methyl-propanenitrile]
≥ 80%: percent effect (mortality or growth inhibition) at 200 ppm [2] | mortality at 200 ppm [4] | percent control (mortality, anti-feedant effect or growth inhibition) at 200 ppm [5] | mortality at 200 ppm [6] | mortality at 200 ppm [7] | mortality at 200 ppm [8] | percent effect (mortality or growth inhibition) at 200 ppm [9]

CCS(=O)(=O)c1cc(C(C)(C)C#N)cnc1-c1nc2cc(C(F)(F)F)n(CC(F)(F)F)c(=O)c2n1C [Compound P11, 2-[5-ethylsulfonyl-6-[3-methyl-4-oxo-5-(2,2,2-trifluoroethyl)-6-(trifluoromethyl)imidazo[4,5-c]pyridin-2-yl]-3-pyridyl]-2-methyl-propanenitrile]
≥ 80%: percent effect (mortality or growth inhibition) at 200 ppm [2] | mortality at 200 ppm [4] | percent control (mortality, anti-feedant effect or growth inhibition) at 200 ppm [5] | mortality at 200 ppm [6] | mortality at 200 ppm [7] | percent effect (mortality or growth inhibition) at 200 ppm [9]

CCS(=O)(=O)c1cc(C(C)(C)C#N)ccc1-c1nc2cc(C(F)(F)F)n(C3CC3)c(=O)c2n1C [Compound P12, 2-[4-[5-cyclopropyl-3-methyl-4-oxo-6-(trifluoromethyl)imidazo[4,5-c]pyridin-2-yl]-3-ethylsulfonyl-phenyl]-2-methyl-propanenitrile]
≥ 80%: percent effect (mortality or growth inhibition) at 200 ppm [2] | mortality at 200 ppm [4] | percent control (mortality, anti-feedant effect or growth inhibition) at 200 ppm [5] | mortality at 200 ppm [6] | mortality at 200 ppm [7] | mortality at 200 ppm [8] | percent effect (mortality or growth inhibition) at 200 ppm [9]

CCS(=O)(=O)c1cc(C(C)(C)C#N)cnc1-c1nc2cc(C(F)(F)F)n(C3CC3)c(=O)c2n1C [Compound P17, 2-[6-[5-cyclopropyl-3-methyl-4-oxo-6-(trifluoromethyl)imidazo[4,5-c]pyridin-2-yl]-5-ethylsulfonyl-3-pyridyl]-2-methyl-propanenitrile]
≥ 80%: mortality at 24 ppm [1] | percent effect (mortality or growth inhibition) at 200 ppm [2] | mortality at 200 ppm [4] | percent control (mortality, anti-feedant effect or growth inhibition) at 200 ppm [5] | mortality at 200 ppm [6] | mortality at 200 ppm [7] | mortality at 200 ppm [8] | percent effect (mortality or growth inhibition) at 200 ppm [9]
